Measurements taken from patent US20250154554A1, “ANTIMICROBIAL SUSCEPTIBILITY” (priority 2022, published 2025).
Counter-ions that a name gives are not always drawn. Like-named read-outs stand apart in the source and are kept apart here.

How the values were obtained:
[1] = system: E. coli; assay: MIC of strains giving very major errors (VME); assay type: cell-based
[2] = system: K. pneumoniae; assay: MIC of strains giving very major errors (VME); assay type: cell-based
[3] = system: E. cloacae; assay: MIC of strains giving very major errors (VME); assay type: cell-based
[4] = system: K. aerogenes; assay: MIC of strains giving very major errors (VME); assay type: cell-based; conditions: strain EB 069, site 2
[5] = system: Gram-negative bacteria (Enterobacterales, Pseudomonas, Acinetobacter); conditions: for RM I (strains intermediate by reference method) / RM R (strains resistant by reference method) / RM S (strains susceptible by reference method): total of 3 sites, blood cultures; for CLSI RM I / EUCAST RM I: number of strains I; for CLSI RM R / EUCAST RM R: number of strains resistant; for CLSI RM S / EUCAST RM S: number of strains susceptible
[6] = system: Enterobacterales; assay: Broth microdilution MIC of meropenem for screening of carbapenemases; assay type: cell-based; conditions: the 2 strains found false negative in the carbapenemase screening
[7] = system: Gram-positive bacteria (Staphylococcus spp, Enterococcus spp); assay: Reference method (RM): disk diffusion and/or broth microdilution, S/I/R classification, Gram-positive strains; assay type: cell-based; conditions: for CLSI RM R / EUCAST RM R: number of strains resistant; for CLSI RM S / EUCAST RM S: number of strains susceptible;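 as to all read-outs here: susceptibility categories assigned with the latest EUCAST breakpoint tables or CLSI M100 29th edition breakpoints, with quality control of the reference methods following EUCAST and CLSI guidance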
[8] = system: Staphylococcus aureus; assay: Vancomycin MIC by FASTgrampos kit versus broth microdilution (reference method); assay type: cell-based
[9] = system: bacteria; conditions: by cell membrane lesions; reference [14]; cited from earlier work
[10] = system: fungi; conditions: by cell membrane lesions; reference [13]; cited from earlier work
[11] = system: S. aureus; assay: MIC of strains giving very major errors (VME); assay type: cell-based; conditions: strain ST 099, site 2
[12] = Klebsiella pneumoniae, strain EB 033, site 2, read-out: MIC
[13] = CLSI, FASTinov, Porto, spiked on blood cultures
[14] = CLSI, Hospital Ramon et Cajal, Madrid, patients' blood cultures
[15] = EUCAST, FASTinov, Porto, spiked on blood cultures
[16] = EUCAST, Hospital Ramon et Cajal, Madrid, patients' blood cultures
[17] = EUCAST, Hospital S. João, Porto, patients' blood cultures
[18] = CLSI, Hospital S. João, Porto, patients' blood cultures
[19] = CLSI, FASTinov, Porto, spiked blood cultures
[20] = CLSI, total of 3 sites, blood cultures
[21] = EUCAST, FASTinov, Porto, spiked blood cultures
[22] = EUCAST, total of 3 sites, blood cultures
[23] = CLSI, Hospital Ramon et Cajal, Madrid, patients blood cultures
[24] = EUCAST, Hospital Ramon et Cajal, Madrid, patients blood cultures

CO/N=C(\C(=O)N[C@@H]1C(=O)N2C(C(=O)[O-])=C(C[N+]3(C)CCCC3)CS[C@H]12)c1csc(N)n1 [Cefepime]
MIC ([1]; Escherichia coli, strain EB 022, site 2, read-out: MIC): 4 µg/mL | MIC ([1]; Escherichia coli, strain EB 052, site 2, read-out: MIC): 64 µg/mL | MIC [2, 12]: 32 µg/mL

CC(C)(O/N=C(\C(=O)N[C@@H]1C(=O)N2C(C(=O)[O-])=C(C[n+]3ccccc3)CS[C@H]12)c1csc(N)n1)C(=O)O [Ceftazidime]
MIC [2, 12]: 32 µg/mL | MIC ([3]; Enterobacter cloacae, strain EB 1168, site 1): 32 µg/mL | MIC ([4]; Klebsiella aerogenes): 16 µg/mL | RM I (strains intermediate by reference method) ([5]; CLSI): 4 | RM R (strains resistant by reference method) ([5]; CLSI): 115 | RM S (strains susceptible by reference method) ([5]; CLSI): 194 | RM I (strains intermediate by reference method) ([5]; EUCAST): 34 | RM R (strains resistant by reference method) ([5]; EUCAST): 119 | RM S (strains susceptible by reference method) ([5]; EUCAST): 159 | CLSI RM I [5, 13]: 3 | CLSI RM I [5, 14]: 1 | EUCAST RM I [5, 15]: 29 | EUCAST RM I [5, 16]: 3 | EUCAST RM I [5, 17]: 2 | CLSI RM R [5, 13]: 94 | CLSI RM R [5, 14]: 13 | CLSI RM R [5, 18]: 8 | EUCAST RM R [5, 15]: 98 | EUCAST RM R [5, 16]: 15 | EUCAST RM R [5, 17]: 6 | CLSI RM S [5, 13]: 56 | CLSI RM S [5, 14]: 64 | CLSI RM S [5, 18]: 74 | EUCAST RM S [5, 15]: 26 | EUCAST RM S [5, 16]: 60 | EUCAST RM S [5, 17]: 73

C[C@@H](O)[C@H]1C(=O)N2C(C(=O)O)=C(S[C@@H]3CN[C@H](C(=O)N(C)C)C3)[C@H](C)[C@H]12 [Meropenem]
MIC ([2]; Klebsiella pneumoniae, strain EB 021, site 2, read-out: MIC): 16 µg/mL | MIC [6]: 0.5 µg/mL | RM I (strains intermediate by reference method) ([5]; CLSI): 5 | RM R (strains resistant by reference method) ([5]; CLSI): 10 | RM S (strains susceptible by reference method) ([5]; CLSI): 217 | RM R (strains resistant by reference method) ([5]; EUCAST): 9 | RM S (strains susceptible by reference method) ([5]; EUCAST): 223 | CLSI RM I [5, 13]: 5 | CLSI RM R [5, 13]: 7 | CLSI RM R [5, 14]: 3 | EUCAST RM R [5, 15]: 6 | EUCAST RM R [5, 16]: 3 | CLSI RM S [5, 13]: 69 | CLSI RM S [5, 14]: 72 | CLSI RM S [5, 18]: 76 | EUCAST RM S [5, 15]: 75 | EUCAST RM S [5, 16]: 72 | EUCAST RM S [5, 17]: 76

CN[C@H](CC(C)C)C(=O)N[C@H]1C(=O)N[C@@H](CC(N)=O)C(=O)N[C@H]2C(=O)N[C@H]3C(=O)N[C@H](C(=O)N[C@H](C(=O)O)c4cc(O)cc(O)c4-c4cc3ccc4O)[C@H](O)c3ccc(c(Cl)c3)Oc3cc2cc(c3O[C@@H]2O[C@H](CO)[C@@H](O)[C@H](O)[C@H]2O[C@H]2C[C@](C)(N)[C@H](O)[C@H](C)O2)Oc2ccc(cc2Cl)[C@H]1O [Vancomycin]
RM I (strains intermediate by reference method) [7, 19]: 3 | RM R (strains resistant by reference method) [7, 19]: 7 | RM S (strains susceptible by reference method) [7, 19]: 100 | RM I (strains intermediate by reference method) [7, 20]: 3 | RM R (strains resistant by reference method) [7, 20]: 8 | RM S (strains susceptible by reference method) [7, 20]: 254 | RM R (strains resistant by reference method) [7, 21]: 10 | RM S (strains susceptible by reference method) [7, 21]: 100 | RM R (strains resistant by reference method) [7, 22]: 11 | RM S (strains susceptible by reference method) [7, 22]: 254 | CLSI RM R [7, 18]: 1 | EUCAST RM R [7, 17]: 1 | CLSI RM S [7, 23]: 56 | CLSI RM S [7, 18]: 98 | EUCAST RM S [7, 24]: 56 | EUCAST RM S [7, 17]: 98 | number of S. aureus strains in MIC distribution ([8]; MIC by FASTgrampos 0.25 mg/L, MIC by microdilution 0.25 mg/L): 2 | number of S. aureus strains in MIC distribution ([8]; MIC by FASTgrampos 0.25 mg/L, MIC by microdilution 0.5 mg/L): 15 | number of S. aureus strains in MIC distribution ([8]; MIC by FASTgrampos 0.5 mg/L, MIC by microdilution 0.5 mg/L): 21 | number of S. aureus strains in MIC distribution ([8]; MIC by FASTgrampos 0.5 mg/L, MIC by microdilution 1 mg/L): 10 | number of S. aureus strains in MIC distribution ([8]; MIC by FASTgrampos 1 mg/L, MIC by microdilution 0.5 mg/L): 3 | number of S. aureus strains in MIC distribution ([8]; MIC by FASTgrampos 1 mg/L, MIC by microdilution 1 mg/L): 7 | number of S. aureus strains in MIC distribution ([8]; MIC by FASTgrampos 2 mg/L, MIC by microdilution 1 mg/L): 3 | number of S. aureus strains in MIC distribution ([8]; MIC by FASTgrampos 2 mg/L, MIC by microdilution 2 mg/L): 2

CN(C)CCCOc1nn(Cc2ccccc2)c2ccccc12 [benzydamine hydrochloride]
killing of bacteria [9]: rapidly kills | killing of fungi [10]: rapidly kills

Gentamicin
RM R (strains resistant by reference method) [7, 19]: 15 | RM S (strains susceptible by reference method) [7, 19]: 51 | RM R (strains resistant by reference method) [7, 20]: 54 | RM S (strains susceptible by reference method) [7, 20]: 147 | RM R (strains resistant by reference method) [7, 21]: 29 | RM S (strains susceptible by reference method) [7, 21]: 37 | RM R (strains resistant by reference method) [7, 22]: 70 | RM S (strains susceptible by reference method) [7, 22]: 131 | CLSI RM R [7, 23]: 15 | CLSI RM R [7, 18]: 24 | EUCAST RM R [7, 24]: 17 | EUCAST RM R [7, 17]: 24 | CLSI RM S [7, 23]: 28 | CLSI RM S [7, 18]: 68 | EUCAST RM S [7, 24]: 26 | EUCAST RM S [7, 17]: 68 | MIC ([1]; strain EB 286, site 3): 8 µg/mL | RM I (strains intermediate by reference method) ([5]; CLSI): 6 | RM R (strains resistant by reference method) ([5]; CLSI): 77 | RM S (strains susceptible by reference method) ([5]; CLSI): 262 | RM R (strains resistant by reference method) ([5]; EUCAST): 69 | RM S (strains susceptible by reference method) ([5]; EUCAST): 194 | CLSI RM I [5, 13]: 3 | CLSI RM I [5, 14]: 1 | CLSI RM I [5, 18]: 2 | CLSI RM R [5, 13]: 60 | CLSI RM R [5, 14]: 9 | CLSI RM R [5, 18]: 8 | EUCAST RM R [5, 15]: 47 | EUCAST RM R [5, 16]: 10 | EUCAST RM R [5, 17]: 12 | CLSI RM S [5, 13]: 120 | CLSI RM S [5, 14]: 70 | CLSI RM S [5, 18]: 72 | EUCAST RM S [5, 15]: 64 | EUCAST RM S [5, 16]: 65 | EUCAST RM S [5, 17]: 65

Penicillin
RM R (strains resistant by reference method) [7, 19]: 82 | RM S (strains susceptible by reference method) [7, 19]: 49 | RM R (strains resistant by reference method) [7, 20]: 209 | RM S (strains susceptible by reference method) [7, 20]: 94 | RM R (strains resistant by reference method) [7, 21]: 28 | RM S (strains susceptible by reference method) [7, 21]: 7 | RM R (strains resistant by reference method) [7, 22]: 56 | RM S (strains susceptible by reference method) [7, 22]: 19 | CLSI RM R [7, 23]: 53 | CLSI RM R [7, 18]: 74 | EUCAST RM R [7, 24]: 10 | EUCAST RM R [7, 17]: 18 | CLSI RM S [7, 23]: 15 | CLSI RM S [7, 18]: 30 | EUCAST RM S [7, 24]: 2 | EUCAST RM S [7, 17]: 10 | MIC [11]: 0.25 mg/L

Piperacillin-tazobactam
MIC (mg/L) ([1]; strain EB 718, site 1): >128/4 | MIC ([2]; strain EB 101, site 1): 64 µg/mL | MIC (mg/L) ([3]; strain EB 123, site 1): 64/4 | MIC (mg/L) [4]: 64/4 | RM I (strains intermediate by reference method) ([5]; CLSI): 13 | RM R (strains resistant by reference method) ([5]; CLSI): 95 | RM S (strains susceptible by reference method) ([5]; CLSI): 237 | RM I (strains intermediate by reference method) ([5]; EUCAST): 51 | RM R (strains resistant by reference method) ([5]; EUCAST): 86 | RM S (strains susceptible by reference method) ([5]; EUCAST): 177 | CLSI RM I [5, 13]: 6 | CLSI RM I [5, 14]: 7 | EUCAST RM I [5, 15]: 49 | EUCAST RM I [5, 16]: 2 | CLSI RM R [5, 13]: 87 | CLSI RM R [5, 14]: 2 | CLSI RM R [5, 18]: 6 | EUCAST RM R [5, 15]: 71 | EUCAST RM R [5, 16]: 9 | EUCAST RM R [5, 17]: 6 | CLSI RM S [5, 13]: 90 | CLSI RM S [5, 14]: 71 | CLSI RM S [5, 18]: 76 | EUCAST RM S [5, 15]: 33 | EUCAST RM S [5, 16]: 69 | EUCAST RM S [5, 17]: 75
